Source: the supplement of paper PMC10307832

Tests used:
Experiment in all cases: relative viability (nuclei count vs DMSO), 5 days (fraction); higher = more cells survive
[1] = system: A-427
Summary of the method: (§1)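 Nuclei were stained with Hoechst during a one-step fixation (final 0.05% Triton X-100, 1% formaldehyde, 1 ug/ml Hoechst) carried out 5 days after dosing, then counted on 4× images. The cells, lung cancer lines in 1536-well plates, had been dosed by pin tool the day after seeding with one drug alone or a fixed anchor-drug dose plus five library-drug doses (not always all listed) in √10 steps. Relative viability is the nuclei count in treated wells divided by that in vehicle wells, and each value is the median of duplicate plates.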

[2] = system: CAL-12T
Summary of the method: as §1

[3] = system: COR-L 105
Summary of the method: as §1

[4] = system: EPLC-272H
Summary of the method: as §1

[5] = system: HCC-15
Summary of the method: as §1

[6] = system: HCC-44
Summary of the method: as §1

[7] = system: LC-2-ad
Summary of the method: as §1

[8] = system: LCLC-97TM1
Summary of the method: as §1

[9] = system: NCI-H1395
Summary of the method: as §1

[10] = system: NCI-H1734
Summary of the method: as §1

[11] = system: NCI-H1915
Summary of the method: as §1

[12] = system: NCI-H1975
Summary of the method: as §1

[13] = system: NCI-H2023
Summary of the method: as §1

[14] = system: NCI-H2342
Summary of the method: as §1

[15] = system: NCI-H2347
Summary of the method: as §1

[16] = system: NCI-H2405
Summary of the method: as §1

[17] = system: NCI-H520
Summary of the method: as §1

[18] = system: NCI-H838
Summary of the method: as §1

[19] = system: SW 1573
Summary of the method: as §1

[20] = system: SW 900
Summary of the method: as §1

[21] = system: UMC-11
Summary of the method: as §1

Q: What does the source list for `Cc1csc(=NC2CCCCC2)n1/N=C/c1ccc(O)c(O)c1O` [MIM1] + Cc1cc(Nc2cc(N3CCN(C)CC3)nc(Sc3ccc(NC(=O)C4CC4)cc3)n2)n[nH]1 [Tozasertib] (partner 0.1 µM)?
A: relative viability ([1]; first compound 0.2 µM): 0.266; relative viability ([1]; first compound 2 µM): 0.202; relative viability ([1]; first compound 6.325 µM): 0.249; relative viability ([1]; first compound 20 µM): 0.164; relative viability ([2]; first compound 0.2 µM): 0.244; relative viability ([2]; first compound 0.6325 µM): 0.254; relative viability ([2]; first compound 2 µM): 0.303; relative viability ([2]; first compound 6.325 µM): 0.206; relative viability ([2]; first compound 20 µM): 0.204; relative viability ([3]; first compound 0.2 µM): 0.573; relative viability ([3]; first compound 0.6325 µM): 0.35; relative viability ([3]; first compound 2 µM): 0.341; relative viability ([3]; first compound 6.325 µM): 0.354; relative viability ([3]; first compound 20 µM): 0.338; relative viability ([4]; first compound 0.2 µM): 0.425; relative viability ([4]; first compound 0.6325 µM): 0.226; relative viability ([4]; first compound 2 µM): 0.219; relative viability ([4]; first compound 6.325 µM): 0.372; relative viability ([4]; first compound 20 µM): 0.124; relative viability ([5]; first compound 0.2 µM): 0.354; relative viability ([5]; first compound 0.6325 µM): 0.35; relative viability ([5]; first compound 2 µM): 0.228; relative viability ([5]; first compound 6.325 µM): 0.231; relative viability ([5]; first compound 20 µM): 0.137; relative viability ([6]; first compound 0.2 µM): 0.962; relative viability ([6]; first compound 0.6325 µM): 1.1; relative viability ([6]; first compound 2 µM): 0.387; relative viability ([6]; first compound 6.325 µM): 0.584; relative viability ([6]; first compound 20 µM): 0.184; relative viability ([7]; first compound 0.2 µM): 0.546; relative viability ([7]; first compound 0.6325 µM): 0.471; relative viability ([7]; first compound 2 µM): 0.367; relative viability ([7]; first compound 6.325 µM): 0.364; relative viability ([7]; first compound 20 µM): 0.223; relative viability ([8]; first compound 0.2 µM): 0.285; relative viability ([8]; first compound 0.6325 µM): 0.237; relative viability ([8]; first compound 2 µM): 0.292; relative viability ([8]; first compound 6.325 µM): 0.192; relative viability ([8]; first compound 20 µM): 0.109; relative viability ([9]; first compound 0.2 µM): 0.742; relative viability ([9]; first compound 0.6325 µM): 0.791; relative viability ([9]; first compound 2 µM): 0.784; relative viability ([9]; first compound 6.325 µM): 0.68; relative viability ([9]; first compound 20 µM): 0.374; relative viability ([10]; first compound 0.2 µM): 0.226; relative viability ([10]; first compound 0.6325 µM): 0.261; relative viability ([10]; first compound 2 µM): 0.256; relative viability ([10]; first compound 6.325 µM): 0.169; relative viability ([10]; first compound 20 µM): 0.124; relative viability ([11]; first compound 0.2 µM): 0.499; relative viability ([11]; first compound 0.6325 µM): 0.403; relative viability ([11]; first compound 2 µM): 0.337; relative viability ([11]; first compound 6.325 µM): 0.305; relative viability ([11]; first compound 20 µM): 0.182; relative viability ([12]; first compound 0.2 µM): 0.643; relative viability ([12]; first compound 0.6325 µM): 0.807; relative viability ([12]; first compound 2 µM): 0.699; relative viability ([12]; first compound 6.325 µM): 0.338; relative viability ([12]; first compound 20 µM): 0.254; relative viability ([13]; first compound 0.2 µM): 0.32; relative viability ([13]; first compound 0.6325 µM): 0.345; relative viability ([13]; first compound 2 µM): 0.3; relative viability ([13]; first compound 6.325 µM): 0.237; relative viability ([13]; first compound 20 µM): 0.109; relative viability ([14]; first compound 0.2 µM): 0.429; relative viability ([14]; first compound 0.6325 µM): 0.58; relative viability ([14]; first compound 2 µM): 0.53; relative viability ([14]; first compound 6.325 µM): 0.508; relative viability ([14]; first compound 20 µM): 0.575; relative viability ([15]; first compound 0.2 µM): 0.478; relative viability ([15]; first compound 0.6325 µM): 0.51; relative viability ([15]; first compound 2 µM): 0.497; relative viability ([15]; first compound 6.325 µM): 0.473; relative viability ([15]; first compound 20 µM): 0.369; relative viability ([16]; first compound 0.2 µM): 0.767; relative viability ([16]; first compound 0.6325 µM): 0.721; relative viability ([16]; first compound 2 µM): 0.682; relative viability ([16]; first compound 6.325 µM): 0.549; relative viability ([16]; first compound 20 µM): 0.537; relative viability ([17]; first compound 0.2 µM): 0.55; relative viability ([17]; first compound 0.6325 µM): 0.419; relative viability ([17]; first compound 2 µM): 0.463; relative viability ([17]; first compound 6.325 µM): 0.428; relative viability ([17]; first compound 20 µM): 0.375; relative viability ([18]; first compound 0.2 µM): 0.292; relative viability ([18]; first compound 0.6325 µM): 0.307; relative viability ([18]; first compound 2 µM): 0.249; relative viability ([18]; first compound 6.325 µM): 0.236; relative viability ([18]; first compound 20 µM): 0.236; relative viability ([19]; first compound 0.2 µM): 0.21; relative viability ([19]; first compound 0.6325 µM): 0.197; relative viability ([19]; first compound 2 µM): 0.257; relative viability ([19]; first compound 6.325 µM): 0.127; relative viability ([19]; first compound 20 µM): 0.128; relative viability ([20]; first compound 0.2 µM): 0.657; relative viability ([20]; first compound 0.6325 µM): 0.722; relative viability ([20]; first compound 2 µM): 0.495; relative viability ([20]; first compound 6.325 µM): 0.528; relative viability ([20]; first compound 20 µM): 0.183; relative viability ([21]; first compound 0.2 µM): 0.197; relative viability ([21]; first compound 2 µM): 0.196; relative viability ([21]; first compound 6.325 µM): 0.207; relative viability ([21]; first compound 20 µM): 0.187
